Measurements reported in patent US20200306295A1, “METHOD AND DEVICE FOR ANNIHILATION OF Staphylococcus aureus” (priority 2017, published 2020).

Test system: MRSA USA300
Test: In vivo MRSA mice wound model (blue light, H2O2, fusidic acid)
Design: species or system Balb/c mice
Excerpt: To initiate the formation of a skin wound, five groups (n=5) of eight-week old female Balb/c mice (obtained from Harlan Laboratories, Indianapolis, Ind., USA) were disinfected with ethanol (70%) and shaved on the middle of the back (approximately a one-inch by one-inch square region around the injection site) one day prior to infection as described from a reported procedure (3). To prepare the bacterial inoculum, an aliquot of overnight culture of MRSA USA300 was transferred to fresh Tryptic soy broth and shaken at 37° C. until an OD600 value of ˜1.0 was achieved. The cells were centrifuged, washed once with PBS, re-centrifuged, and then re-suspended in PBS. Mice subsequently received an intradermal injection (40 μL) containing 2.40×10^9 CFU/mL MRSA USA300. An open wound formed at the site of injection for each mouse, ˜60 hrs post-infection.
One group of mice was left untreated (negative control). Each group of mice receiving a particular treatment regimen was housed separately in a ventilated cage with appropriate bedding, food, and water. Mice were checked twice daily during infection and treatment to ensure no adverse reactions were observed. Mice were treated twice daily (once every 12 hours) for three days, before they were humanely euthanized via CO2 asphyxiation 12 hours after the last dose was administered. The region around the skin wound was lightly swabbed with ethanol (70%) and excised. The tissue was subsequently homogenized in PBS. The homogenized tissue was then serially diluted in PBS before plating onto mannitol salt agar plates. Plates were incubated for at least 19 hours at 37° C. before viable MRSA CFU/mL were counted for each group. Outlier was removed based upon the Dixon Q Test.

[1] = agent alone, topical, twice a day for three days

| Structure (SMILES) | pus formation in wound after sacrifice [1] | CFU reduction in wound tissue compared to the control group (blue light (24 J/cm^2) and 13.2 mM H2O2, twice daily for three days) | CFU reduction in wound tissue compared to fusidic acid-treated group (blue light and H2O2-treated group) | pus formation in wound after sacrifice (blue light plus H2O2) |
| --- | --- | --- | --- | --- |
| OO [H2O2, hydrogen peroxide] | didn't show this sign | around 1.5 log | around one more log reduction | didn't show this sign |
| CC(=O)O[C@H]1C[C@@]2(C)[C@@H](C[C@@H](O)[C@H]3[C@@]4(C)CC[C@@H](O)[C@@H](C)[C@@H]4CC[C@@]32C)/C1=C(\CCC=C(C)C)C(=O)O [fusidic acid] | showed the formation of pus | – | – | – |
